# Data taken from PubChem BioAssay AID256 (DTP/NCI, 2004).
# Values joined by “and” are separate entries in the source; they are usually repeats but may differ in a detail not shown here. Equal entries are not always repeated. Inconclusive results and toxic doses are left out.
# Tested on: CD2F1 mice, L1210 leukemia ip, survival T/C
# Assay: NCI In Vivo Anticancer Drug Screen. Data for tumor model L1210 Leukemia (intraperitoneal) in CD2F1 (CDF1) mice
# Conditions: higher = longer survival
# How it was run: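 Implant tumor; dose compound or vehicle; measure endpoint in both groups; report treated divided by control.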
# [1] = endpoint: mean survival time, dose: 100.0 mg/kg/injection, schedule: Q01DX001 (ip), vehicle: saline with Tween-80
# [2] = endpoint: mean survival time, dose: 200.0 mg/kg/injection, schedule: Q01DX001 (ip), vehicle: saline with Tween-80
# [3] = endpoint: mean survival time, dose: 400.0 mg/kg/injection, schedule: Q01DX001 (ip), vehicle: saline with Tween-80
# [4] = endpoint: mean survival time, dose: 100.0 mg/kg/injection, schedule: Q04DX002 (ip), vehicle: saline with Tween-80
# [5] = endpoint: mean survival time, dose: 200.0 mg/kg/injection, schedule: Q04DX002 (ip), vehicle: saline with Tween-80
# [6] = endpoint: mean survival time, dose: 100.0 mg/kg/injection, schedule: Q01DX009 (ip), vehicle: saline with Tween-80
# [7] = endpoint: mean survival time, dose: 200.0 mg/kg/injection, schedule: Q01DX009 (ip), vehicle: saline with Tween-80
# [8] = endpoint: mean survival time, dose: 400.0 mg/kg/injection, schedule: Q01DX009 (ip), vehicle: saline with Tween-80
# [9] = endpoint: mean survival time, dose: 100.0 mg/kg/injection, schedule: Q04DX003 (ip), vehicle: saline with Tween-80
# [10] = endpoint: mean survival time, dose: 200.0 mg/kg/injection, schedule: Q04DX003 (ip), vehicle: saline with Tween-80
# [11] = endpoint: mean survival time, dose: 400.0 mg/kg/injection, schedule: Q04DX003 (ip), vehicle: saline with Tween-80
# [12] = endpoint: mean survival time, dose: 25.0 mg/kg/injection, schedule: Q04DX003 (ip), vehicle: saline with Tween-80
# [13] = endpoint: mean survival time, dose: 0.5 mg/kg/injection, schedule: Q01DX009 (ip), vehicle: saline
# [14] = endpoint: mean survival time, dose: 1.0 mg/kg/injection, schedule: Q01DX009 (ip), vehicle: saline
# [15] = endpoint: mean survival time, dose: 2.0 mg/kg/injection, schedule: Q01DX009 (ip), vehicle: saline
smiles,measurement,setting,value
NC1CCCCC1N.O=C([O-])c1ccc(N=Nc2cccc([N+](=O)[O-])c2)cc1O.O=C([O-])c1ccc(N=Nc2cccc([N+](=O)[O-])c2)cc1O.[Pt+4],T/C,"endpoint: median survival time, dose: 3.12 mg/kg/injection, schedule: Q04DX003 (ip), vehicle: saline with Tween-80",150 % of control and 301 % of control
same,T/C,"endpoint: median survival time, dose: 6.25 mg/kg/injection, schedule: Q04DX003 (ip), vehicle: saline with Tween-80",190 % of control and 247 % of control
same,T/C,"endpoint: median survival time, dose: 12.5 mg/kg/injection, schedule: Q04DX003 (ip), vehicle: saline with Tween-80",361 % of control and 375 % of control
same,T/C,"endpoint: median survival time, dose: 50.0 mg/kg/injection, schedule: Q04DX003 (ip), vehicle: saline with Tween-80",89 % of control
CCOC(=O)/C=C/c1c[nH]c(C(=O)OCC)c1,T/C,"endpoint: mean survival time, dose: 100.0 mg/kg/injection, schedule: Q04DX002 (ip), vehicle: other",93 % of control
same,T/C,"endpoint: mean survival time, dose: 200.0 mg/kg/injection, schedule: Q04DX002 (ip), vehicle: other",93 % of control
same,T/C,"endpoint: mean survival time, dose: 400.0 mg/kg/injection, schedule: Q04DX002 (ip), vehicle: other",100 % of control
OCCN=Cc1c[nH]c2ccccc12,T/C,[1],95 % of control
same,T/C,[2],106 % of control
same,T/C,[3],103 % of control
NC(=O)C(c1ccccc1)N1CCOCC1 (centres undefined),T/C,"endpoint: mean survival time, dose: 100.0 mg/kg/injection, schedule: Q01DX009 (ip), vehicle: saline",100 % of control
same,T/C,"endpoint: mean survival time, dose: 200.0 mg/kg/injection, schedule: Q01DX009 (ip), vehicle: saline",101 % of control
same,T/C,"endpoint: mean survival time, dose: 400.0 mg/kg/injection, schedule: Q01DX009 (ip), vehicle: saline",105 % of control
COc1ccc(C(=O)C(C)(C)C)cc1,T/C,[4],108 % of control
same,T/C,[5],97 % of control
O=C1OC(=O)C2C1CC1C(=O)OC(=O)C12 (centres undefined),T/C,"endpoint: mean survival time, dose: 50.0 mg/kg/injection, schedule: Q04DX003 (ip), vehicle: Klucel (hydroxypropylcellulose) (HPC)",97 % of control
same,T/C,"endpoint: mean survival time, dose: 100.0 mg/kg/injection, schedule: Q04DX003 (ip), vehicle: Klucel (hydroxypropylcellulose) (HPC)",100 % of control
same,T/C,"endpoint: mean survival time, dose: 200.0 mg/kg/injection, schedule: Q04DX003 (ip), vehicle: Klucel (hydroxypropylcellulose) (HPC)",96 % of control
Nc1ncnc2nc(C(O)C(O)C(O)C(O)CO)[nH]c12 (centres undefined),T/C,"endpoint: median survival time, dose: 12.5 mg/kg/injection, schedule: Q01DX005 (ip), vehicle: distilled water + Tween-80",98 % of control
same,T/C,"endpoint: median survival time, dose: 25.0 mg/kg/injection, schedule: Q01DX005 (ip), vehicle: distilled water + Tween-80",98 % of control
same,T/C,"endpoint: median survival time, dose: 50.0 mg/kg/injection, schedule: Q01DX005 (ip), vehicle: distilled water + Tween-80",100 % of control
same,T/C,"endpoint: median survival time, dose: 100.0 mg/kg/injection, schedule: Q01DX005 (ip), vehicle: distilled water + Tween-80",97 % of control
same,T/C,"endpoint: median survival time, dose: 200.0 mg/kg/injection, schedule: Q01DX005 (ip), vehicle: distilled water + Tween-80",98 % of control
CNC(=O)c1ccc(C(=O)NC)cc1,T/C,[6],86 % of control
same,T/C,[7],94 % of control
same,T/C,[8],96 % of control
CC(C)C(Br)C(N)=O (centres undefined),T/C,"endpoint: mean survival time, dose: 100.0 mg/kg/injection, schedule: Q01DX009 (ip), vehicle: saline sonified",97 % of control
same,T/C,"endpoint: mean survival time, dose: 200.0 mg/kg/injection, schedule: Q01DX009 (ip), vehicle: saline sonified",89 % of control
same,T/C,"endpoint: mean survival time, dose: 400.0 mg/kg/injection, schedule: Q01DX009 (ip), vehicle: saline sonified",87 % of control
O=C(O)C(c1ccccc1)C(F)(F)F (centres undefined),T/C,[6],95 % of control
same,T/C,[9],108 % of control
same,T/C,[7],105 % of control
same,T/C,[10],94 % of control
same,T/C,[8],94 % of control
same,T/C,[11],92 % of control
Nc1nc(N)c(N=Nc2ccc(SCC(=O)O)cc2)c(=O)[nH]1,T/C,[6],100 % of control
same,T/C,[7],94 % of control
same,T/C,[8],101 % of control
CC(C)(C)CC(C)(C)c1ccc(O)c(O)c1,T/C,[12],101 % of control
same,T/C,"endpoint: mean survival time, dose: 50.0 mg/kg/injection, schedule: Q04DX003 (ip), vehicle: saline with Tween-80",93 % of control
same,T/C,[9],96 % of control
c1ccc2c(c1)nnn2-c1ccncc1,T/C,[9],91 % of control
same,T/C,[10],104 % of control
O=C(CCl)Nc1ccc([N+](=O)[O-])cc1,T/C,"endpoint: mean survival time, dose: 400.0 mg/kg/injection, schedule: Q04DX002 (ip), vehicle: saline with Tween-80",87 % of control
CN1CC2(c3ccccc3)CN(C)CC(c3ccccc3)(C1)C2=O,T/C,"endpoint: mean survival time, dose: 6.25 mg/kg/injection, schedule: Q01DX009 (ip), vehicle: saline with Tween-80",98 % of control
same,T/C,"endpoint: mean survival time, dose: 6.25 mg/kg/injection, schedule: Q04DX003 (ip), vehicle: saline with Tween-80",98 % of control
same,T/C,"endpoint: mean survival time, dose: 12.5 mg/kg/injection, schedule: Q01DX009 (ip), vehicle: saline with Tween-80",95 % of control
same,T/C,"endpoint: mean survival time, dose: 12.5 mg/kg/injection, schedule: Q04DX003 (ip), vehicle: saline with Tween-80",98 % of control
same,T/C,"endpoint: mean survival time, dose: 25.0 mg/kg/injection, schedule: Q01DX009 (ip), vehicle: saline with Tween-80",103 % of control
same,T/C,[12],92 % of control
CC(=O)N(C(C)=O)c1nc(Br)c2ccccc2c1-c1ccc([N+](=O)[O-])cc1,T/C,"endpoint: mean survival time, dose: 50.0 mg/kg/injection, schedule: Q04DX003 (ip), vehicle: other",100 % of control
same,T/C,"endpoint: mean survival time, dose: 100.0 mg/kg/injection, schedule: Q04DX003 (ip), vehicle: other",94 % of control
same,T/C,"endpoint: mean survival time, dose: 200.0 mg/kg/injection, schedule: Q04DX003 (ip), vehicle: other",94 % of control
same,T/C,"endpoint: mean survival time, dose: 400.0 mg/kg/injection, schedule: Q04DX003 (ip), vehicle: other",88 % of control
CCC1(C)CCC2C(=CCC3C(C)(C(=O)OC)CCCC23C)C1 (centres undefined),T/C,[1],94 % of control
same,T/C,[2],92 % of control
same,T/C,[3],94 % of control
COc1c(O)ccc(/C=C2/SC(=S)NC2=O)c1[N+](=O)[O-],T/C,[1],101 % of control
CC(=O)NC1=C(N2CC2)C(=O)C(NC(C)=O)=C(N2CC2)C1=O,T/C,[13],164 % of control and 181 % of control
same,T/C,"endpoint: mean survival time, dose: 1.0 mg/kg/injection, schedule: Q01DX007 (ip), vehicle: saline",190 % of control
same,T/C,[14],213 % of control and 230 % of control and 261 % of control
same,T/C,"endpoint: mean survival time, dose: 1.0 mg/kg/injection, schedule: Q03DX003 (ip), vehicle: saline",162 % of control
same,T/C,"endpoint: mean survival time, dose: 2.0 mg/kg/injection, schedule: Q01DX007 (ip), vehicle: saline",105 % of control
same,T/C,[15],253 % of control and 100 % of control and 101 % of control
same,T/C,"endpoint: mean survival time, dose: 2.0 mg/kg/injection, schedule: Q03DX003 (ip), vehicle: saline",198 % of control
same,T/C,"endpoint: mean survival time, dose: 2.0 mg/kg/injection, schedule: Q04DX003 (ip), vehicle: saline",191 % of control
same,T/C,"endpoint: mean survival time, dose: 4.0 mg/kg/injection, schedule: Q03DX003 (ip), vehicle: saline",107 % of control
same,T/C,"endpoint: mean survival time, dose: 4.0 mg/kg/injection, schedule: Q04DX003 (ip), vehicle: saline",217 % of control
COc1cc(NC(N)=O)ccc1Nc1c2ccc(N)cc2nc2cc(N)ccc12,T/C,[13],100 % of control
same,T/C,[14],98 % of control
same,T/C,[15],102 % of control
same,T/C,"endpoint: mean survival time, dose: 4.0 mg/kg/injection, schedule: Q01DX009 (ip), vehicle: saline",102 % of control
same,T/C,"endpoint: mean survival time, dose: 8.0 mg/kg/injection, schedule: Q01DX009 (ip), vehicle: saline",103 % of control
same,T/C,"endpoint: mean survival time, dose: 16.0 mg/kg/injection, schedule: Q01DX009 (ip), vehicle: saline",111 % of control
CN(C)N=C1CCCCCC1,T/C,"endpoint: mean survival time, dose: 75.0 mg/kg/injection, schedule: Q01DX001 (ip), vehicle: saline",102 % of control
same,T/C,"endpoint: mean survival time, dose: 150.0 mg/kg/injection, schedule: Q01DX001 (ip), vehicle: saline",98 % of control
Nc1nc2c(ncn2-c2cccc(NC(=O)c3cccc(S(=O)(=O)F)c3)c2)c(=O)[nH]1,T/C,"endpoint: mean survival time, dose: 50.0 mg/kg/injection, schedule: Q04DX002 (ip), vehicle: saline with Tween-80",108 % of control
same,T/C,[4],94 % of control
same,T/C,[5],90 % of control
COC(=O)c1cccc(C)c1O,T/C,[6],102 % of control
same,T/C,[9],97 % of control
same,T/C,[7],98 % of control
same,T/C,[10],96 % of control
same,T/C,[11],93 % of control
CC(=O)OC(c1ccccc1)C(C)C(O)(C(F)(F)F)C(F)(F)F (centres undefined),T/C,[1],98 % of control
same,T/C,[2],87 % of control
same,T/C,[3],95 % of control
CN(C)c1n[nH]c(=S)s1,T/C,[9],100 % of control
same,T/C,[10],100 % of control
same,T/C,[11],88 % of control
CCCNCC(=O)O[C@]1(CC)C(=O)OCc2c1cc1n(c2=O)Cc2cc3ccccc3nc2-1,T/C,"endpoint: median survival time, dose: 7.5 mg/kg/injection, schedule: Q04DX002 (ip), vehicle: saline",112 % of control
same,T/C,"endpoint: median survival time, dose: 30.0 mg/kg/injection, schedule: Q04DX002 (ip), vehicle: saline",159 % of control and 204 % of control
same,T/C,"endpoint: median survival time, dose: 60.0 mg/kg/injection, schedule: Q04DX002 (ip), vehicle: saline",116 % of control and 106 % of control
CC(=O)Nc1cccc(N)c1,T/C,"endpoint: mean survival time, dose: 100.0 mg/kg/injection, schedule: Q04DX003 (ip), vehicle: saline",102 % of control
